Drawing on EP3046573B1, “AMYLIN ANALOGUES” (Zealand Pharma A/S, priority 2013, dated 2015), this text covers EC50 for two molecules.

The experiment addresses T1, human calcitonin receptor (hCTR2) (Homo sapiens, UniProt P30988).
T1 construct: expressed in transfected cells
T1 sequence (P30988 25-474): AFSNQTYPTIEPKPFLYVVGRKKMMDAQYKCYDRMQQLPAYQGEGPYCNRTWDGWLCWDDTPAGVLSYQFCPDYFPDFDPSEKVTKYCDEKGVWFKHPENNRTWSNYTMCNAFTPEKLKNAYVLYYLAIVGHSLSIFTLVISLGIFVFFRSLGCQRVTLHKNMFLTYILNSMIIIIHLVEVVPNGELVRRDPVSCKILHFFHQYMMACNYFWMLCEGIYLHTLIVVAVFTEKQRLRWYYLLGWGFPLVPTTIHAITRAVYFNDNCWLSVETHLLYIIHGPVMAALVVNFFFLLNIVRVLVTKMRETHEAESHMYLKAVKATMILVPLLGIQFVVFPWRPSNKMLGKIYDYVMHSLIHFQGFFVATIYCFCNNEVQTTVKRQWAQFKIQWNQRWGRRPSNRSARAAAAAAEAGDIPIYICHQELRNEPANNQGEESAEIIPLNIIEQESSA
Briefly: hCTR2 assay: induction of cAMP (AlphaScreen cAMP Assay kit) in COS7 cells expressing hCTR2. It counts as cell-based. From the text:
The cell line COS7, originating from African Green Monkey kidney fibroblast cells, was used for establishment of the stable cell lines described below. The COS7 cellular background was used due to it being RAMP naive, and as such it provides the best available system for testing of the monomeric hCTR and different heterodimeric amylin receptor subtypes functionally generated by introduction of the individual RAMPs.
A cell line expressing the human calcitonin receptor (hCTR2) was generated in the COS7 cellular background as stable clones. In brief, hCTR2 (GI: 4502547) was amplified by PCR using primers encoding terminal restriction sites for subcloning. The 5'-end primers additionally encoded a near Kozak consensus sequence to ensure efficient translation. The fidelity of the DNA encoding the receptor was confirmed by DNA sequencing. The PCR products encoding the receptor were subcloned into a mammalian expression vector containing a neomycin (G418) resistance marker. The mammalian expression vector encoding the receptor was transfected into COS7 cells by a standard liposome transfection method. 48 hours post-transfection, cells were seeded for limited dilution cloning and selected with 1 mg/ml G418 in the culture medium. After 3 weeks, surviving colonies of hCTR2-expressing cells were picked, propagated and tested in the amylin efficacy assay as described in Example 3 below. One hCTR2-expressing clone was chosen for compound profiling.
In vitro activity of test peptides at the hCTR2 and hAMYR3 receptors was assessed by measuring the induction of cAMP following stimulation of the receptor by pramlintide or peptides of the invention using the AlphaScreen® cAMP Assay kit from Perkin-Elmer.
Briefly, COS7 cells expressing hCTR2 (see Example 2, above) were seeded at 30-40,000 cells per well in 96-well microtiter plates coated with 0.01 % poly-L-lysine, and grown for 1 day in culture in 100 µl growth medium [DMEM, 10% FCS, Penicillin (100 IU/ml), Streptomycin (100 µg/ml)]. On the day of analysis, growth medium was removed and the cells were washed once with 200 µl Tyrode buffer [Tyrode's Salts (9.6 g/l), 10 mM HEPES, pH 7.4]. Cells were incubated in 100 µl Tyrode buffer containing increasing concentrations of test peptides, 100 µM IBMX and 0.1% casein for 15 min at 37° C. The reaction was stopped by carefully decanting off the compound/buffer medium and replacing it with lysis/detection buffer (80 µl 0.1 % w/v BSA, 5 mM HEPES, 0.3 % v/v Tween-20 in deionized water). After incubation at room temperature for 10 min., the cAMP content of the resulting cell lysate was estimated according to the AlphaScreen® cAMP Assay manufacturer's instructions. EC50 values and relative efficacy values (in %) compared to reference peptide (Pramlintide) were estimated by computer-aided curve fitting using the 4-parameter logistic (4PL) non-linear model.
The in vitro activity results (expressed as EC50 values) for peptides of the invention and for Pramlintide (reference peptide) are summarized in Table 2, below.

Structures are written as SMILES. Numbered stars: 1 amine (or outer) side, 2 acyl side, 3 side chain; on linkers, the order of the positions; unused ones are H or OH. Bridge positions count the residues as written; N and C are the ends. Square brackets hold non-standard residues; d marks the D form. Peptide text beside a SMILES is read from it. * marks the point of attachment. C20 diacid = O=C(O)CCCCCCCCCCCCCCCCCCC(=O)*; γGlu = O=C(O)[C@H](CCC(=O)[*:2])N[*:1]; NMeI = CC[C@H](C)[C@H](NC)C(=O)O; Sar = CNCC(=O)O

For the molecule `CC[C@H](C)[C@@H](C(=O)N[C@@H](CC(C)C)C(=O)N[C@@H](CO)C(=O)N[C@@H](CO)C(=O)N[C@H](C(=O)N[C@@H](CC(N)=O)C(=O)N[C@H](C(=O)NCC(=O)N[C@@H](CO)C(=O)N[C@@H](CC(N)=O)C(=O)N[C@H](C(=O)N1CCC[C@H]1C(N)=O)[C@@H](C)O)C(C)C)[C@@H](C)O)N(C)C(=O)[C@H](C)NC(=O)CN(C)C(=O)[C@H](Cc1ccccc1)NC(=O)[C@H](CC(N)=O)NC(=O)[C@H](CC(N)=O)NC(=O)[C@H](CO)NC(=O)[C@H](CO)NC(=O)[C@@H](Cc1c[nH]cn1)NC(=O)[C@H](Cc1c[nH]cn1)NC(=O)[C@H](CC(C)C)NC(=O)[C@H](Cc1ccccc1)NC(=O)[C@H](CCC(=O)O)NC(=O)[C@H](C)NC(=O)[C@H](CC(C)C)NC(=O)[C@H](CCCNC(=N)N)NC(=O)[C@H](CCC(N)=O)NC(=O)[C@@H](NC(=O)[C@H](C)NC(=O)[C@@H]1CSSC[C@H](NC(=O)[C@H](CCCNC(=N)N)NC(=O)CC[C@H](NC(=O)CCCCCCCCCCCCCCCCCCC(=O)O)C(=O)O)C(=O)N[C@@H](CC(N)=O)C(=O)N[C@@H]([C@@H](C)O)C(=O)N[C@@H](C)C(=O)N[C@@H]([C@@H](C)O)C(=O)N1)[C@@H](C)O` [Compound 12, [19CD]-isoGlu-RC()NTATC()ATQRLAEFLH-DHis-SSNNF-Gly(Me)-A-Ile(Me)-LSSTNVGSNTP-NH2] ({C20 diacid-γGlu}-RCNTATCATQRLAEFLH[dH]SSNNF[Sar]A[NMeI]LSSTNVGSNTP-NH2; disulfide 2-7), the EC50 came to 88 pM.

Consider `CC[C@H](C)[C@@H](C(=O)N[C@@H](CC(C)C)C(=O)N[C@@H](CO)C(=O)N[C@@H](CO)C(=O)N[C@H](C(=O)N[C@@H](CC(N)=O)C(=O)N[C@H](C(=O)NCC(=O)N[C@@H](CO)C(=O)N[C@@H](CC(N)=O)C(=O)N[C@H](C(=O)N1CCC[C@H]1C(N)=O)[C@@H](C)O)C(C)C)[C@@H](C)O)N(C)C(=O)[C@H](C)NC(=O)CN(C)C(=O)[C@@H](Cc1ccccc1)NC(=O)[C@H](CC(N)=O)NC(=O)[C@H](CC(N)=O)NC(=O)[C@H](CO)NC(=O)[C@H](CO)NC(=O)[C@H](Cc1c[nH]cn1)NC(=O)[C@H](Cc1c[nH]cn1)NC(=O)[C@H](CC(C)C)NC(=O)[C@H](Cc1ccccc1)NC(=O)[C@H](CCC(=O)O)NC(=O)[C@H](C)NC(=O)[C@H](CC(C)C)NC(=O)[C@H](CCCNC(=N)N)NC(=O)[C@H](CCC(N)=O)NC(=O)[C@@H](NC(=O)[C@H](C)NC(=O)[C@@H]1CSSC[C@H](NC(=O)[C@H](CCCNC(=N)N)NC(=O)CC[C@H](NC(=O)CCCCCCCCCCCCCCCCCCC(=O)O)C(=O)O)C(=O)N[C@@H](CC(N)=O)C(=O)N[C@@H]([C@@H](C)O)C(=O)N[C@@H](C)C(=O)N[C@@H]([C@@H](C)O)C(=O)N1)[C@@H](C)O` [Compound 13, [19CD]-isoGlu-RC()NTATC()ATQRLAEFLHHSSNN-DPhe-Gly(Me)-A-Ile(Me)-LSSTNVGSNTP-NH2] ({C20 diacid-γGlu}-RCNTATCATQRLAEFLHHSSNN[dF][Sar]A[NMeI]LSSTNVGSNTP-NH2; disulfide 2-7), for which the EC50 amounted to 67 pM.
